Legend:
BTK = BTK (Homo sapiens, UniProt Q06187); experiment: BTK cell degradation in TMD-8 cells, HTRF assay; format: cell-based; set-up: endogenous in cells; host or cells: TMD-8 cells; conditions: 6 h treatment, IC50 (DC50) of BTK degradation
Procedure, shortened: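 TMD-8 cells treated 6 h with 8-dose series (6-fold dilutions, 0.2% DMSO final), then lysed and BTK quantified by HTRF (337/665/620 nm) after overnight antibody incubation at room temperature. Degradation normalized to DMSO high and low controls; DC50 and Dmax from four-parameter fit.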

HEK-293 cells = experiment: HEK-293 cytotoxicity detection (CellTiter-Glo); format: cell-based; conditions: Homo sapiens, 72 h, 72 h incubation, CellTiter-Glo luminescence, read-out: HEK293
Procedure, shortened: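 HEK-293 cells exposed 72 h to 8 compounds doses (4-fold dilutions, top stock 5 mM at 500×) in 0.2% DMSO. Viability by CellTiter-Glo luminescence; inhibition normalised to DMSO high control and low control, IC50 from four-parameter curve fit.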

Sequence of BTK (Q06187 whole entry): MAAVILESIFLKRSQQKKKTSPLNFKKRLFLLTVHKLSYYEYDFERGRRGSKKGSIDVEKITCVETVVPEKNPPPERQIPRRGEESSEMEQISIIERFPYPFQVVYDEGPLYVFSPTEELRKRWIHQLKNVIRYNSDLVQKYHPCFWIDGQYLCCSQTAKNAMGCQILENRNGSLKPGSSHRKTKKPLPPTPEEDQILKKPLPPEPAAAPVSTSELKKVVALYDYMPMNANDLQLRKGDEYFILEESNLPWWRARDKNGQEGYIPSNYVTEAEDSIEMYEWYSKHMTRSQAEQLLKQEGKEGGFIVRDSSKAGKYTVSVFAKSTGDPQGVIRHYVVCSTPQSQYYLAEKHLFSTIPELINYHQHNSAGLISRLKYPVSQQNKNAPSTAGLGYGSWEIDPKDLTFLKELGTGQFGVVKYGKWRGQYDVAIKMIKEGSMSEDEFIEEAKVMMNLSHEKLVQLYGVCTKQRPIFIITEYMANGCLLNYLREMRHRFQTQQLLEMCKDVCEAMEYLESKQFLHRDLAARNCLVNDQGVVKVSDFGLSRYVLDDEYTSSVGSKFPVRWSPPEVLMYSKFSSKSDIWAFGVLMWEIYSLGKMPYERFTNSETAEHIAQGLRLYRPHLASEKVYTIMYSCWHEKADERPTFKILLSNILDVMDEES

Row | SMILES | DC50 (BTK) [nM] | IC50 (HEK-293 cells) [nM]
1 | COc1ccccc1C(=O)NCc1ccc(-c2nn3c(c2C(N)=O)Nc2ccc(N4CCN(CC5CCN(c6ccc(N7CCC(=O)NC7=O)cc6)CC5)CC4)cc2CC3)cc1F [Example C19, 7-(4-((1-(4-(2,4-dioxotetrahydropyrimidin-1(2H)-yl)phenyl)piperidin-4-yl)methyl)piperazin-1-yl)-2-(3-fluoro-4-((2-methoxybenzamido)methyl)phenyl)-9,10-dihydro-4H-benzo[d]pyrazolo[1,5-a][1,3]diazepine-3-carboxamide] | 0.848 | 142
2 | COc1ccc(F)cc1C(=O)NCc1ccc(-c2nn3c(c2C(N)=O)Nc2ccc(N4CCN(CC5CCN(c6ccc(N7CCC(=O)NC7=O)cc6)CC5)CC4)cc2CC3)cc1 [Example C3, 7-(4-((1-(4-(2,4-dioxotetrahydropyrimidin-1(2H)-yl)phenyl)piperidin-4-yl)methyl)piperazin-1-yl)-2-(4-((5-fluoro-2-methoxybenzamido)methyl)phenyl)-9,10-dihydro-4H-benzo[d]pyrazolo[1,5-a][1,3]diazepine-3-carboxamide] | 0.343 | > 10000
3 | Cc1c(C(=O)Nc2cn(C)cn2)ccc(-c2nn3c(c2C(N)=O)Nc2ccc(N4CCN(CCc5cccc6c5oc(=O)n6C5CCC(=O)NC5=O)CC4)cc2CC3)c1F (stereo not shown) [Example B90, 7-(4-(2-(3-(2,6-dioxopiperidin-3-yl)-2-oxo-2,3-dihydrobenzo[d]oxazol-7-yl)ethyl)piperazin-1-yl)-2-(2-fluoro-3-methyl-4-((1-methyl-1H-imidazol-4-yl)carbamoyl)phenyl)-9,10-dihydro-4H-benzo[d]pyrazolo[1,5-a][1,3]diazepine-3-carboxamide] | 0.706 | > 10000
4 | COc1cc(C)ccc1C(=O)NCc1ccc(-c2nn3c(c2C(N)=O)Nc2ccc(N4CCN(CC5CCN(c6ccc(N7CCC(=O)NC7=O)cc6)CC5)CC4)cc2CC3)cc1C [Example C31, 7-(4-((1-(4-(2,4-dioxotetrahydropyrimidin-1(2H)-yl)phenyl)piperidin-4-yl)methyl)piperazin-1-yl)-2-(4-((2-methoxy-4-methylbenzamido)methyl)-3-methylphenyl)-9,10-dihydro-4H-benzo[d]pyrazolo[1,5-a][1,3]diazepine-3-carboxamide] | 7.02 | > 10000
5 | NC(=O)c1c(-c2ccc(Oc3ccccc3)cc2)nn2c1Nc1ccc(NCC3CCN(c4ccc5c(c4)C(=O)N(C4CCC(=O)NC4=O)C5=O)CC3)cc1CC2 (stereo not shown) [Example A3, 7-(((1-(2-(2,6-dioxopiperidin-3-yl)-1,3-dioxoisoindolin-5-yl)piperidin-4-yl)methyl)amino)-2-(4-phenoxyphenyl)-9,10-dihydro-4H-benzo[d]pyrazolo[1,5-a][1,3]diazepine-3-carboxamide] | 20.6 | > 10000
6 | Cc1cccc(NC(=O)c2ccc(-c3nn4c(c3C(N)=O)Nc3ccc(N5CCN(CC6CCN(c7ccc(N8CCC(=O)NC8=O)cc7)CC6)CC5)cc3CC4)c(F)c2C)n1 [Example B28, 7-(4-((1-(4-(2,4-dioxotetrahydropyrimidin-1(2H)-yl)phenyl)piperidin-4-yl)methyl)piperazin-1-yl)-2-(2-fluoro-3-methyl-4-((6-methylpyridin-2-yl)carbamoyl)phenyl)-9,10-dihydro-4H-benzo[d]pyrazolo[1,5-a][1,3]diazepine-3-carboxamide] | 0.726 | > 10000
7 | Cc1c(C(=O)Nc2ccn(C)n2)ccc(-c2nn3c(c2C(N)=O)Nc2ccc(N4CCN(CC5CCN(c6ccc(N7CCC(=O)NC7=O)cc6)CC5)CC4)cc2CC3)c1F [Example B82, 7-(4-((1-(4-(2,4-dioxotetrahydropyrimidin-1(2H)-yl)phenyl)piperidin-4-yl)methyl)piperazin-1-yl)-2-(2-fluoro-3-methyl-4-((1-methyl-1H-pyrazol-3-yl)carbamoyl)phenyl)-9,10-dihydro-4H-benzo[d]pyrazolo[1,5-a][1,3]diazepine-3-carboxamide] | 4.1 | > 10000
8 | Cc1ccnc(NC(=O)c2ccc(-c3nn4c(c3C(N)=O)Nc3ccc(N5CCN(CC6CCN(c7ccc(N8CCC(=O)NC8=O)cc7)CC6)CC5)cc3CC4)c(F)c2C)n1 [Example B43, 7-(4-((1-(4-(2,4-dioxotetrahydropyrimidin-1(2H)-yl)phenyl)piperidin-4-yl)methyl)piperazin-1-yl)-2-(2-fluoro-3-methyl-4-((4-methylpyrimidin-2-yl)carbamoyl)phenyl)-9,10-dihydro-4H-benzo[d]pyrazolo[1,5-a][1,3]diazepine-3-carboxamide] | 0.543 | > 10000
9 | NC(=O)c1c(-c2cc(F)c(C(=O)Nc3cc(C(F)(F)F)ccn3)c(F)c2)nn2c1Nc1ccc(N3CCN(CC4CCN(c5ccc(N6CCC(=O)NC6=O)cc5)CC4)CC3)cc1CC2 [Example B14, 2-(3,5-difluoro-4-((4-(trifluoromethyl)pyridin-2-yl)carbamoyl)phenyl)-7-(4-((1-(4-(2,4-dioxotetrahydropyrimidin-1(2H)-yl)phenyl)piperidin-4-yl)methyl)piperazin-1-yl)-9,10-dihydro-4H-benzo[d]pyrazolo[1,5-a][1,3]diazepine-3-carboxamide] | 1.61 | 75.4
10 | NC(=O)c1c(-c2ccc(Oc3ccccc3)cc2)nn2c1Nc1ccc(C(=O)NC3CCN(CC4CCN(c5cc6c(cc5F)C(=O)N(C5CCC(=O)NC5=O)C6=O)CC4)CC3)cc1CC2 (stereo not shown) [Example A10, N^7-(1-((1-(2-(2,6-dioxopiperidin-3-yl)-6-fluoro-1,3-dioxoisoindolin-5-yl)piperidin-4-yl)methyl)piperidin-4-yl)-2-(4-phenoxyphenyl)-9,10-dihydro-4H-benzo[d]pyrazolo[1,5-a][1,3]diazepine-3,7-dicarboxamide] | 1.75 | 121
11 | Cc1cccc(N(COC(=O)C(C)(C)C)C(=O)c2ccc(-c3nn4c(c3C(N)=O)Nc3ccc(N5CCN(CC6CCN(c7ccc(N8CCC(=O)N(COC(=O)C(C)(C)C)C8=O)cc7)CC6)CC5)cc3CC4)c(F)c2C)n1 [Example B79, (3-(4-(4-((4-(3-carbamoyl-2-(2-fluoro-3-methyl-4-((6-methylpyridin-2-yl)((pivaloyloxy)methyl)carbamoyl)phenyl)-9,10-dihydro-4H-benzo[d]pyrazolo[1,5-a][1,3]diazepin-7-yl)piperazin-1-yl)methyl)piperidin-1-yl)phenyl)-2,6-dioxotetrahydropyrimidin-1(2H)-yl)methyl pivalate] | 3.68 | > 10000
12 | COc1c(C)cccc1C(=O)NCc1ccc(-c2nn3c(c2C(N)=O)Nc2ccc(N4CCN(CC5CCN(c6ccc(N7CCC(=O)NC7=O)cc6)CC5)CC4)cc2CC3)cc1C [Example C49, 7-(4-((1-(4-(2,4-dioxotetrahydropyrimidin-1(2H)-yl)phenyl)piperidin-4-yl)methyl)piperazin-1-yl)-2-(4-((2-methoxy-3-methylbenzamido)methyl)-3-methylphenyl)-9,10-dihydro-4H-benzo[d]pyrazolo[1,5-a][1,3]diazepine-3-carboxamide] | 9.8 | > 10000
13 | Cc1cccc(NC(=O)c2ccc(-c3nn4c(c3C(N)=O)Nc3ccc(N5CCN(C(=O)C6CCN(c7ccc(N8CCC(=O)NC8=O)cc7)CC6)CC5)cc3CC4)c(F)c2C)n1 [Example B73, 7-(4-(1-(4-(2,4-dioxotetrahydropyrimidin-1(2H)-yl)phenyl)piperidine-4-carbonyl)piperazin-1-yl)-2-(2-fluoro-3-methyl-4-((6-methylpyridin-2-yl)carbamoyl)phenyl)-9,10-dihydro-4H-benzo[d]pyrazolo[1,5-a][1,3]diazepine-3-carboxamide] | 2.18 | > 10000
14 | Cc1cccc(NC(=O)c2ccc(-c3nn4c(c3C(N)=O)Nc3ccc(N5CCN(CC6CCN(c7ccc(N8CCC(=O)NC8=O)cc7)CC6)CC5)cc3CC4)cc2)n1 [Example B19, 7-(4-((1-(4-(2,4-dioxotetrahydropyrimidin-1(2H)-yl)phenyl)piperidin-4-yl)methyl)piperazin-1-yl)-2-(4-((6-methylpyridin-2-yl)carbamoyl)phenyl)-9,10-dihydro-4H-benzo[d]pyrazolo[1,5-a][1,3]diazepine-3-carboxamide] | 0.284 | > 10000
15 | Cc1c(C(=O)Nc2cscn2)ccc(-c2nn3c(c2C(N)=O)Nc2ccc(N4CCN(CC5CCN(c6ccc(CN7CCC(=O)NC7=O)cc6)CC5)CC4)cc2CC3)c1F [Example B98, 7-(4-((1-(4-((2,4-dioxotetrahydropyrimidin-1(2H)-yl)methyl)phenyl)piperidin-4-yl)methyl)piperazin-1-yl)-2-(2-fluoro-3-methyl-4-(thiazol-4-ylcarbamoyl)phenyl)-9,10-dihydro-4H-benzo[d]pyrazolo[1,5-a][1,3]diazepine-3-carboxamide] | 1.1 | > 10000
16 | COc1ccc2ccccc2c1C(=O)N[C@H](C)c1ccc(-c2nn3c(c2C(N)=O)Nc2ccc(N4CCN(CC5CCN(c6ccc(N7CCC(=O)NC7=O)cc6)CC5)CC4)cc2CC3)cc1 [Example C13, (R)-7-(4-((1-(4-(2,4-dioxotetrahydropyrimidin-1(2H)-yl)phenyl)piperidin-4-yl)methyl)piperazin-1-yl)-2-(4-(1-(2-methoxy-1-naphthamido)ethyl)phenyl)-9,10-dihydro-4H-benzo[d]pyrazolo[1,5-a][1,3]diazepine-3-carboxamide] | 11.6 | > 10000
17 | NC(=O)c1c(-c2ccc(Oc3ccccc3)cc2)nn2c1Nc1cc(C3CCN(CCc4ccc(N5CCC(=O)NC5=O)cc4)CC3)ccc1CC2 [Example A33, 6-(1-(4-(2,4-dioxotetrahydropyrimidin-1(2H)-yl)phenethyl)piperidin-4-yl)-2-(4-phenoxyphenyl)-9,10-dihydro-4H-benzo[d]pyrazolo[1,5-a][1,3]diazepine-3-carboxamide] | > 2000 | 314

From patent US20240246977A1, “DEGRADATION OF BRUTON'S TYROSINE KINASE (BTK) BY CONJUGATION OF BTK INHIBITORS WITH E3 LIGASE LIGAND AND METHOD OF USE” (BeiGene Switzerland GmbH, priority 2021, published 2024)
